“Also recorded” adds a separate entry of the source.
Experiments:
[1] = tested on: HCV RNA replication (full-length luciferase reporter-linked HCV genome); assay: Luciferase reporter-linked HCV replication assay in Huh7.5 cells; type: cell-based, Hepatitis C Virus; conditions: for percent of normal HCV RNA replication remaining at 5 µM / percent of normal HCV RNA replication remaining at 10 µM: Hepatitis C virus, Huh7.5, read-out: AV, percent of normal HCV RNA replication remaining
Experimental: For example, HCV replication assays employing a luciferase reporter-linked HCV genome in the presence of various combinations of clemizole and an NS3 protease inhibitor (SCH503034) are shown in FIGS. 1A and 1B. In such assays, luciferase activity is directly proportional to HCV RNA genome replication. […] The results can be plotted on a linear or log scale as a function of drug concentrations to generate replication inhibition curves.
Luciferase assays were performed at 72 hr.
(§1) Medium was changed daily.
The experiment was repeated four times, each time with triplicates.

HuR protein = target: T1, HuR protein (Homo sapiens, UniProt Q15717); assay: Microfluidic RNA binding assay of HuR (specificity of hits); conditions: 0.1 mM
T1 construct: made in house; […]
From the text: For each experiment, an image was taken after MITOMI and the final PBS wash. This was used to determine the concentration of surface bound protein (FITC channel) as well as surface bound target RNA (Cy3 channel). […] Data from multiple data points were averaged, and their standard deviations calculated. Results were then normalized to 1. Between 10-20 replicates were included for each probe tested. A control protein, Gus-his (Roche) was included in each experiment and subjected to the same analysis. When present, detected signal with Gus-his was used for background subtraction.
Specificity of hits identified in the small molecule screen: To determine the specificity of the hits identified in the small molecule screen, the HuR protein (one of the human RNA binding protein used to validate our RNA binding assay) was selected. […] Binding of HuR to the consensus 4A RNA sequence was tested in the presence of the inhibitory molecules shown to inhibit RNA binding by NS4B. […] Similarly, 0.1 mM of the identified compounds didn't have an inhibitory effect on binding of HuR to the 3′ terminus of the negative HCV RNA strand.

Huh7.5 cells = assay: Alamar Blue viability assay
Experimental: (§2) Huh-7.5 cells were maintained in Dulbecco's modified minimal essential medium (Gibco) supplemented with 1% L-glutamine (Gibco), 1% penicillin, 1% streptomycin (Gibco), 1× nonessential amino acids (Gibco) and 10% fetal bovine serum (Omega Scientific). Cell lines were passaged twice weekly after treatment with 0.05% trypsin-0.02% EDTA and seeding at a dilution of 1:5. Subconfluent Huh-7.5 cells were trypsinized and collected by centrifugation at 700 g for 5 min. The cells were then washed three times in ice-cold RNase-free PBS (BioWhittaker) and resuspended at 1.5*10^7 cells/ml in PBS. Wild type or mutant FL-J6/JFH-5′C19Rluc2AUbi RNA for electroporation was generated by in vitro transcription of XbaI-linearized DNA templates using the T7 MEGAscript kit (Ambion), followed by purification, essentially as described above (In vitro RNA transcription and fluorescent labeling). 5 μg of RNA was mixed with 400 μl of washed Huh-7.5 cells in a 2 mm-gap cuvette (BTX) and immediately pulsed (0.82 kV, five 99 μs pulses) with a BTX-830 electroporator. After a 10 min recovery at 25° C., pulsed cells were diluted into 10 ml of prewarmed growth medium. Cells from several electroporations were pooled to a common a stock and seeded in 6 well plates (5*10^5 cells per well). After 24 hr, medium was replaced and cells were grown in the presence of serial dilutions of the various inhibitory compounds (Sigma) identified in the screen. […] Untreated cells were used as a negative control for water soluble compounds. For compounds solubilized in DMSO, untreated cells were grown in the presence of corresponding concentrations of the solvent as a negative control. Medium was changed daily. After 72 hr of treatment, cells were subjected to an alamar blue based viability assay and luciferase assay.
(§3) Following 72 hrs of treatment, cells were incubated for 3 hrs at 37° C. in the presence of 10% Alamar Blue reagent (TREK Diagnostic Systems).

[2] = cited from earlier work
W55R mutant J6/JFH RNA = assay: Luciferase reporter-linked replication assay, W55R mutant; type: cell-based, Hepatitis C Virus; conditions: 10 μM clemizole; whole cell RNA or in vitro-transcribed RNA
From the text: Two of the clemizole-resistant NS4B mutants were characterized in detail. The first, W55R is depicted in FIG. 9a. It involves the substitution of an arginine for the tryptophan at amino acid 55 within a predicted cytoplasmically-oriented segment of NS4B. This mutation is sufficient to confer a clemizole-resistant phenotype in cells: Huh7.5 cells transfected with either whole cell RNA extracted from the W55R mutant cells (FIG. 9b) or with in vitro-transcribed J6/JFH RNA encoding this point mutation and a linked luciferase reporter gene (FIG. 9c) were unaffected by 10 μM clemizole.
The plasmid FL-J6/JFH-5′C19Rluc2AUbi that consists of the full-length HCV genome and expresses Renilla luciferase was a gift from Dr. Charles M. Rice^28. The W55R mutation was introduced into this plasmid by site-directed mutagenesis (using the QuikChange kit (Stratagene)).
as §1
Whole cell RNA was extracted from clemizole-resistant replicon clones and from untreated replicon cells using TRIzol reagent (Invitrogen). Equal amounts of whole cell RNA (50 μg) were electroporated into Huh7.5 cells as described above. Cells were grown under G418 selection in the presence or absence of clemizole for 3 weeks. The number of colonies was determined using Image J (NIH) following fixation and staining with Crystal violet.

HCV (genotype 4) = assay: Treatment of patients chronically infected with HCV, serum HCV viral load; type: in vivo, human
Experimental: Three patients chronically-infected with HCV (genotype 4) were treated in accordance with an embodiment of the method of the invention. All were male and had baseline ALT elevations and significant HCV viral loads ranging from 290,000-730,000 IU/ml.
After the first four weeks of clemizole monotherapy, pegylated interferon (180 micrograms Pegasus (Roche) s.q. per week) was added.

[3] = target: T2, W55R NS4B mutant binding to HCV RNA (Hepatitis C virus genotype 1a, UniProt P27958, A1893V/D1840G/F1898S/L1839I/R1905H/S1900A/W1766R); assay: Microfluidic in vitro RNA binding assay, W55R NS4B mutant; conditions: 10 nM clemizole
T2 construct: made in house; host or cells: coupled transcription/translation rabbit reticulocyte system (Promega) with canine microsomal membranes
From the text: This mutation was also introduced into the NS4B-GFP vector and the resulting vector tested for its RNA binding activity using the in vitro microfluidic assay of the invention.
The plasmid pcDNA-NS4B-GFP encoding NS4B of genotype 1a fused in frame with a C-terminal GFP was previously described^5. The mutations RRa, RRb and W55R were introduced into this plasmid by site-directed mutagenesis (using the QuikChange kit (Stratagene)). The plasmid NS5A(AH)GFP was constructed as previously reported. Gus-his vector was obtained from Roche.

[4] = cited from earlier work; remark: listed apart in the source
[5] = target: HCV NS4B binding to the 3′ terminus of the HCV negative strand RNA (Hepatitis C virus genotype 1a, UniProt P27958); assay: Microfluidic (MITOMI) in vitro RNA binding assay of NS4B; conditions: 10 nM clemizole
[6] = Alamar Blue viability assay; conditions: human
Experimental: as §2, §3

Molecule	AV score ([1]; 5 uM)	AV score ([1]; 10 uM)	percent of normal HCV RNA replication remaining at 5 µM ([1]; 5 uM) [%]	percent of normal HCV RNA replication remaining at 10 µM ([1]; 10 uM) [%]	other results
Cc1nc2cc(Cl)ccc2n1Cc1ccccc1	+ (60-90% residual activity)	+ (60-90% residual activity)	87	60	
Cc1cc2ncn(Cc3ccc(Cl)cc3Cl)c2cc1C	+++ (0-30% residual activity)	+++ (0-30% residual activity)	30	8	
Brc1ccc(Cn2cnc3ccccc32)cc1	+++ (0-30% residual activity)	+++ (0-30% residual activity)	23	8	
Cc1nc2ccccc2n1Cc1ccc(Br)cc1	+++ (0-30% residual activity)	+++ (0-30% residual activity)	3	2	
OCc1nc2ccccc2n1Cc1ccc(Br)cc1	++ (30-60% residual activity)	+++ (0-30% residual activity)	50	28	
COC(=O)c1ccc(Cn2cnc3ccccc32)cc1	+ (60-90% residual activity)	++ (30-60% residual activity)	74	54	
CC(C)(C)c1ccc(Cn2cnc3ccccc32)cc1	+++ (0-30% residual activity)	+++ (0-30% residual activity)	30	12	
Cc1ccc(Cn2cnc3ccccc32)cc1	++ (30-60% residual activity)	+++ (0-30% residual activity)	49	23	
COc1ccc(Cn2cnc3ccccc32)cc1	+ (60-90% residual activity)	++ (30-60% residual activity)	70	58	
O=C(O)C1=CC(=C(c2ccc(O)c(C(=O)O)c2)c2ccc(O)c(C(=O)O)c2)C=CC1=O [ATA, Aurintricarboxilic acid]					inhibitory effect on binding of HuR to the 3′ terminus of the negative HCV RNA strand (HuR protein): significantly inhibited; inhibitory effect on binding of HuR to the consensus 4A RNA sequence (HuR protein): significantly inhibited
Cl.Clc1ccc(Cn2c(CN3CCCC3)nc3ccccc32)cc1 [Clemizole hydrochloride, 1-p-Chlorobenzyl-2-(1-pyrrolidinyl)methylbenzimidazole hydrochloride, reference compound]					decrease in viral replication ([1]; 20 μM, luciferase at 72 hr): tenfold decrease; cellular toxicity (Huh7.5 cells; at concentrations up to 20 μM, 72 hr, Alamar Blue): no measurable cellular toxicity; time to relief of itching ([2]; human, in vivo): 24 to 48 h
Clc1ccc(Cn2c(CN3CCCC3)nc3ccccc32)cc1 [clemizole]					difference between IC50 for in vitro RNA binding and EC50 for antiviral effect in cells [1]: ~400 fold; effect of adding clemizole to SCH503034 on inhibition of HCV replication ([1]; SCH503034 1-5 micromolar, 72 hours, FIGS. 1A and 1B): increase the inhibition of HCV replication in a dose-dependent manner by up to several logs; toxicity to the cell in the real-time PCR experiment (Huh7.5 cells; HCV-infected Huh7.5 cells, 72 hours, FIG. 15): no measurable toxicity to the cell; replication of W55R mutant in presence of clemizole (W55R mutant J6/JFH RNA): unaffected; inhibitory effect on binding of HuR to the consensus 4A RNA sequence (HuR protein): No inhibitory effect; HCV viral load after clemizole monotherapy (HCV (genotype 4); 100 mg po BID, week 4, 3 patients): nearly at or below the limit of HCV detection; also recorded: completely, or nearly, undetectable; HCV viral load after clemizole monotherapy plus clemizole with pegylated interferon (HCV (genotype 4); 4 weeks monotherapy plus 4 weeks clemizole-standard dose pegylated interferon): below the limit of detection; reduction of RNA binding, W55R mutant NS4B [3]: ~2 fold; drowsiness, share of patients treated ([4]; Zierz and Greither): 1.3%; patients with drowsiness ([4]; human, in vivo): 2 of the 104 patients; subjects who responded to treatment ([4]; various dosage forms): 92 of the 104 subjects; patients reporting excellent relief of itching ([2]; 40 to 160 mg/day): 66%; patients reporting good relief of itching ([2]; 40 to 160 mg/day): 23%; patients with mild side effects ([2]; drowsiness most common): 4 patients; reduction of RNA binding, wild type NS4B [5]: ~2 fold
Clc1ccc(Cn2c(CN3CCCC3)nc3ccccc32)cc1 [drawing 374]	+ (60-90% residual activity)	++ (30-60% residual activity)	62	37	viability at 72 h, 5 µM [6]: 90 to 100%; viability at 72 h, 10 µM [6]: 90 to 100%; Viab, percent of normal cell viability remaining (Huh7.5 cells; 5 uM): 107%; Viab, percent of normal cell viability remaining (Huh7.5 cells; 10 uM): 93%
Interferon alpha B2					reduction of luciferase activity (positive control) ([1]; 100 u/ml, 72 hr treatment): three log reduction
